Results on nine molecules are retold here after patent US5646188A, “Polyamine derivatives of 1-aminoindan” (priority 1995, dated 1997).

In general, CC50 refers to the concentration at which the toxic effect on the cells reaches its halfway point.

Series [1] concerns pyramidal neurons throughout the CA1 layer of the anterior hippocampus. The series is described as follows: Global Brain Ischemia In Gerbils. It counts as in vivo, mongolian gerbils. The conditions noted are these: Meriones unguiculatus, Pyramidal neuron, ip, 336 h, read-out: PERCENT PROTECTION
Here is the method: Male mongolian gerbils, aged 2.5-5 months, housed 4-8 in a cage, were supplied freely with food and water and maintained at 24° C. with a 12 hour day/night cycle.
For surgery the animals were anesthetized with halothane (1.5% in 100% O2) and the common carotid arteries exposed bilaterally through a midline ventral neck incision. Each artery was clamped for 5 minutes with aneurysm clips to produce global brain ischemia. The anesthesia was discontinued upon clamping. After 5 minutes the clamps were removed and the wound closed with skin clips.
For treatment, the test compound or vehicle was injected intra-peritoneally(ip) in a volume of 50 microlitres of solvent per 10 g body weight. The first injection was given two minutes after clamp removal, and thereafter daily for the next 2 post-operative days (total of 3 injections).
Seven groups each of 4-8 animals were compared:
I. Control; (sham- or unoperated and saline treated),
II. Vehicle treated, unoperated (when solvent is other than saline),
III. Ischemia--untreated or saline treated),
IV. Ischemia--vehicle treated (when solvent is other than saline),
V. Ischemia--Test compound treated, one sub-group per concentration tested,
VI. Ischemia and pentobarbital (40 mg/kg) as positive control).
Analysis of neuronal damage was performed 14 days post-ischemia by counting pyramidal neurons throughout the CA1 layer of the anterior hippocampus in […] thick (paraffin) coronal brain sections stained with hematoxylin and erosin.
Percent Protection values represent the fraction of hippocampi protected from ischemia in a group of animals treated with the stated dose of compound.

The test system of series [2] is Cultures of Dissociated Neonatal Rat Cerebellum. The series is described as follows: Reversal of NMDA Induced Cell Death in cultures of dissociated neonatal rat cerebellum. It counts as cell-based. To be noted: for PERCENT PROTECTION: cell survival minus the NMDA effect (30%); for viability at 0.005 µM: 0.005 μM + NMDA (1 mM, 3 hours); for viability at 0.01 µM: 0.010 μM + NMDA (1 mM, 3 hours); for viability at 0.1 µM: 0.100 μM + NMDA (1 mM, 3 hours); for viability at 1 µM: 1.000 μM + NMDA (1 mM, 3 hours). The procedure: (§1) The cerebellum was aseptically dissociated from 6 or 7-day old rat pups and placed in a 15 ml sterile plastic conical tube containing 3 ml of Dulbecco's modified Eagle's medium (DMEM) with a high glucose concentration ([…]) and 2 mM (v/v) L-glutamine and an antibiotic antimitotic mixture. The cerebella were then dissociated after 20-25 passages through a sterile 13 gauge, 10 cm long stainless steel needle attached to a 5 ml syringe with an inserted 45 micrometer pore nylon sieve. The dissociated cells were centrifuged at 200 g for 5 minutes.
Cells were plated at a density of 200/mm^2 on poly-L-lysine coated surfaces. […] The plated cells were covered with enriched medium and incubated at 37° C. in an atmosphere of 5% CO2 in air and 97% humidity. […] Each test compound was tested in duplicate. Toxic-dose response was determined for each compound over a range from 0.005-1000 micromole. Four groups were run in each set of experiments;
I. Control, consisting of enriched media alone,
II. N-methyl-D-aspartate (NMDA, 1 mM for 3 hours) as the cytotoxic challenge,
III. Test compound plus NMDA, and
IV. Positive control, spermine, spermidine or putrescine (0.01 micromoles) plus NMDA.
Surviving cells in Culture are measured relative to control (100%) as described above. Percent protection is the Cell Survival for the test compound minus the NMDA effect. […] The Effective Protection was calculated as the percent of the Percent Protection (X) divided by the maximal protection value (e.g. X×100/70).

Another series is described as follows: in vitro. The conditions noted are these: rat, cerebellum cell culture. Here is the method:
as §1, with “minutes. […] Cell viability was determined by the tryptan blue exclusion test.” for “minutes.”
Cells were plated at a density of 200/mm^2 on poly-L-lysine coated surfaces. Poly-L-lysine coated glass coverslips were prepared at least one hour in advance of plating by immersing sterile coverslips in sterile distilled water solution containing 15 microgram/ml poly-L-lysine, and washing in sterile water just prior. to use. […] After three days in culture, the media was replaced with media containing the desired test compound. Each test compound was tested in duplicate. Toxic-dose response was determined for each compound over a range from 0.005-1000 micromole. Four groups were run in each set of experiments;
Nerve cell survival was evaluated by phase contrast microscopy and tryptan blue staining after 24 hours.
Toxic dose-response curves were compiled using the protocol described above.

[3] abbreviates: 10.0 mg/kg ip, 3 daily injections, 14 days post-ischemia, fraction of hippocampi protected.
Where [4] appears, read: Rattus norvegicus, 24 hours, read-out: SURVIVING CELL IN CULTURE (relative to control, 100%).
Setting [5] is: 1.0 mg/kg ip, 3 daily injections, 14 days post-ischemia, fraction of hippocampi protected.

Like-named read-outs stand apart in the source and are kept apart here.

On to `NCCCCN(CCCCN)C1CCc2ccccc21` (racemic) [Compound 2711, racemic N,N-di(4-amino-n-butyl)-1-aminoindan], for which the responders at 10 mg/kg in series [1] (setting [3]) was 86%. Besides, in series [1], the responders at 1 mg/kg turned out to be 50%. Also, the “PERCENT PROTECTION” value in series [2] (0.005 μM + NMDA) was found to be 44%. The “PERCENT PROTECTION” value in series [2] (0.010 μM + NMDA) stood at 38%. In series [2] (0.100 μM + NMDA), the “PERCENT PROTECTION” value is 32%. For the same molecule, in series [2] (setting [4]), the viability at 0.005 µM is 74%, the viability at 0.01 µM was determined as 68% and the viability at 0.1 µM is 62%. For the same molecule, the CC50 at 24 h in the series “in vitro” worked out at 60 µM.
For `N[C@@H]1C[C@@H](N)c2ccccc21` (relative stereo) [Compound 2716, trans 1,3-diaminoindan], the responders at 1 mg/kg in series [1] (setting [5]) stood at 50%. Moreover, the responders at 10 mg/kg in series [1] (setting [3]) is 0%. The “PERCENT PROTECTION” value in series [2] (0.005 μM + NMDA) is 35%; in series [2] (0.010 μM + NMDA), 0%; in series [2] (0.100 μM + NMDA) it was -5%; in series [2] (1.000 μM + NMDA) it was 0%. Further, in series [2] (setting [4]), the viability at 0.005 µM was 65%. Besides, the viability at 0.01 µM in series [2] (setting [4]) is 30%. Also, the viability at 0.1 µM in series [2] (setting [4]) is 25%. In series [2] (setting [4]), the viability at 1 µM is 30%. Also, the CC50 at 24 h in the series “in vitro” came to 0.7 µM.
As for `N[C@@H]1CCc2ccccc21` [(R)-1-aminoindan, reference compound], in series [1], the responders at 0.1 mg/kg came to 25%, the responders at 1 mg/kg was 25% and the responders at 10 mg/kg worked out at 25%. Further, in series [2] (0.005 μM + NMDA), the “PERCENT PROTECTION” value worked out at 50%. The “PERCENT PROTECTION” value in series [2] (0.010 μM + NMDA) stood at 0%. In addition, in series [2] (0.100 μM + NMDA), the “PERCENT PROTECTION” value was -2%. For the same molecule, the CC50 at 24 h in the series “in vitro” was found to be 175 µM.
Consider `N[C@H]1CCc2ccccc21` [(S)-1-aminoindan, reference compound], for which, in series [1], the responders at 0.1 mg/kg came out at 0%, the responders at 1 mg/kg was found to be 50% and the responders at 10 mg/kg was 75%.
Consider `NCCCNC1CCc2ccccc21` (centres unmarked) [Compound 2709, N-(3-aminopropyl)-1-aminoindan], for which the responders at 1 mg/kg in series [1] (setting [5]) is 12%. In addition, the responders at 10 mg/kg in series [1] (setting [3]) was found to be 31%. In addition, the “PERCENT PROTECTION” value in series [2] (0.005 μM + NMDA) was -4%; in series [2] (0.010 μM + NMDA), 23%; in series [2] (0.100 μM + NMDA) it was 29%; in series [2] (1.000 μM + NMDA), 13%; in series [2] (10.00 μM + NMDA), 8%. In addition, the viability at 0.005 µM in series [2] (setting [4]) is 26%. Besides, the viability at 0.01 µM in series [2] (setting [4]) came out at 53%. The viability at 0.1 µM in series [2] (setting [4]) was 59%. Besides, the viability at 1 µM in series [2] (setting [4]) worked out at 43%. Besides, in series [2] (Rattus norvegicus, 10.00 μM + NMDA (1 mM, 3 hours), 24 hours, read-out: SURVIVING CELL IN CULTURE (relative to control, 100%)), the viability at 10 µM worked out at 38%. Besides, in the series “in vitro”, the half-maximal cytotoxic concentration (CC50) at 24 h came out at 50 µM.
As to `NCCCCNC1CCc2ccccc21` (centres unmarked) [Compound 2710], the responders at 1 mg/kg in series [1] (setting [5]) stood at 25%. For the same molecule, the responders at 10 mg/kg in series [1] (setting [3]) was 37%. Besides, the “PERCENT PROTECTION” value in series [2] (0.100 μM + NMDA) is on record as 42%. Besides, the “PERCENT PROTECTION” value in series [2] (1.000 μM + NMDA) was 40%. In series [2] (setting [4]), the viability at 0.1 µM stood at 72% and the viability at 1 µM came to 70%. It took 30 µM to reach half-maximal cytotoxicity in the series “in vitro” (CC50 at 24 h).
For `N[C@@H]1C[C@H](N)c2ccccc21` [Compound 2715, cis 1,3-diaminoindan], in series [1] (setting [3]), the responders at 10 mg/kg was found to be 50%. Besides, the responders at 1 mg/kg in series [1] came to 75%. Further, the “PERCENT PROTECTION” value in series [2] (0.005 μM + NMDA) amounted to 19%. The “PERCENT PROTECTION” value in series [2] (0.100 μM + NMDA) is 12%. Besides, the “PERCENT PROTECTION” value in series [2] (1.000 μM + NMDA) stood at 2%. In series [2] (setting [4]), the viability at 0.005 µM worked out at 49%, the viability at 0.1 µM came out at 42% and the viability at 1 µM was found to be 32%. Also, it took 10 µM to reach half-maximal cytotoxicity in the series “in vitro” (CC50 at 24 h).
In the case of `NCCCCNCCCNC1CCc2ccccc21` (centres unmarked) [Compound 2720], the responders at 10 mg/kg in series [1] (setting [3]) came out at 58%. The “PERCENT PROTECTION” value in series [2] (0.005 μM + NMDA) was determined as 42%. For the same molecule, in series [2] (0.010 μM + NMDA), the “PERCENT PROTECTION” value amounted to 8%. Moreover, in series [2] (0.100 μM + NMDA), the “PERCENT PROTECTION” value is given as 2%. For the same molecule, in series [2] (setting [4]), the viability at 0.005 µM stood at 72%, the viability at 0.01 µM is 38% and the viability at 0.1 µM amounted to 32%. This molecule also yielded a CC50 at 24 h in “in vitro” of 0.2 µM.
Consider `CCCC(C)C1(CC)C(=O)NC(=O)NC1=O` (centres unmarked) [Pentobarbital, pentobarbital, reference compound], for which, in series [1], the responders at 40 mg/kg amounted to 87.5%.
